Assay [1] concerns the target T1, flag-tagged HIF1α (AA 786-826) / His6-tagged p300 (AA 323-423) complex (Homo sapiens, UniProt Q09472).
T1 construct: His6-tagged p300 (AA 323-423); made in house; host or cells: E. coli (pETDuet vector)
The experiment in a line: HIF1α p300 displacement assay (TR FRET, +CHAPS). The class given is binding. The note with it: read-out: IC50 (nM) (HIF1α_p300 Displacement + CHAPS). Put shortly: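 In this TR-FRET displacement format, peptides compete HIF1α C-terminal transactivation domain off p300-CH. They were preincubated 1 h at room temperature with 300 nM complex in HEPES pH 7.4/NaCl buffer with 7.5 mM CHAPS and 1 mM DTT. Anti-His-D2 (4 nM) and anti-Flag-K (0.5 μM) followed for 2 h, and a one-site fit of the fluorescence ratio gave IC50.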
(TR-FRET usually uses a lanthanide donor and a delayed reading to cut background.)

The subject of assay [2] is HRE-bla ME-180 cells. The experiment in a line: Cell proliferation assay (viability, MTT, 1% FBS). The class given is cell-based, human. In a few lines: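 Viable cell number was measured with the CellTiter 96 (MTT) kit after compounds were applied for a 16 h normoxic (21% O2) pretreatment, followed by further normoxic or hypoxic (1% O2) culture. Cells: 2×10^4 ME-180 per well, Opti-MEM + 1% FBS, 0.5% DMSO vehicle.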

Assay [3] deals with HRE-bla ME-180 cells. The assay is described as follows: Reporter gene assay (HRE-bla ME-180 HIF reporter, GeneBLAzer). The note with it: for EC50: 24 hour normoxia. The class given is cell-based, human. Put shortly: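 A FRET β-lactamase readout of HIF transcription was used. After compound treatment in 0.3% DMSO/media under normoxic conditions, 20 μl of 6× LiveBLAzer-FRET B/G (CCF4-AM) substrate was added. Plates sat 3 hr at room temperature in the dark and were read at 409 Ex/460Em and 409Ex/530Em on a Synergy 2. Inhibition was compared against DMSO vehicle controls, with chetomin as positive control.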
(In general: Reporter assays use an easily measured gene product as a stand-in for the process of interest.)

The term IC50 denotes the concentration that inhibits the measured activity by half. What is called EC50 is the concentration giving half of the maximal effect.

Bridge positions count the residues as written; N and C are the ends. Square brackets hold non-standard residues; d marks the D form. Peptide text beside a SMILES is read from it. S5 = C=CCCC[C@](C)(N)C(=O)O; Nle = CCCC[C@H](N)C(=O)O

Consider `CCCC[C@H](NC(=O)[C@H](CCC(=O)O)NC(=O)[C@@H](NC(=O)[C@@H](NC(=O)[C@H](C)NC(=O)[C@]1(C)CCCC=CCCC[C@](C)(NC(=O)[C@H](CCC(=O)O)NC(=O)[C@H](CC(=O)O)NC(=O)[C@@H](NC(=O)[C@H](Cc2ccccc2)NC(C)=O)[C@@H](C)CC)C(=O)N[C@@H](C(C)C)C(=O)N[C@@H](CC(C)C)C(=O)N[C@@H](CCCC)C(=O)N1)C(C)C)[C@@H](C)CC)C(=O)N[C@@H](C)C(=O)N[C@@H](CC(C)C)C(N)=O` [SP-142] (Ac-FIDE[S5]VL[Nle][S5]AVIE[Nle]AL-NH2; staple 5-9), for which the IC50 in assay [1] lay in the range of 400 to 700 nM. Moreover, the “Viability 1% FBS AVG (MTT V3-24 hr Normoxia) (μM)” value (shortened to “Viability 1% FBS AVG”) with HRE-bla ME-180 cells [2] is on record as “++++ (≥30: ++++)”. Besides, in the assay on HRE-bla ME-180 cells [3], the “18 h Avg % max inhibition at top conc (HIF Rptr-24 hrs normoxia) (μM)” value (“18 h Avg % max inhibition at top conc” below) is “+++ (≤25 but <50: +++)” and the EC50 is above 30 µM.

In the case of `CCCC[C@H](NC(=O)[C@H](CCC(=O)O)NC(=O)[C@@H](NC(=O)[C@@H](NC(=O)[C@H](CC(N)=O)NC(=O)[C@]1(C)CCCC=CCCC[C@](C)(NC(=O)[C@H](CCC(=O)O)NC(=O)[C@H](CC(=O)O)NC(=O)[C@@H](NC(=O)[C@H](Cc2ccccc2)NC(C)=O)[C@@H](C)CC)C(=O)N[C@@H](C(C)C)C(=O)N[C@@H](CC(C)C)C(=O)N[C@@H](CCCC)C(=O)N1)C(C)C)[C@@H](C)CC)C(=O)N[C@@H](C)C(=O)N[C@@H](CC(C)C)C(N)=O` [SP-143] (Ac-FIDE[S5]VL[Nle][S5]NVIE[Nle]AL-NH2; staple 5-9), in assay [1], the IC50 was 400 to 700 nM. Besides, the “Viability 1% FBS AVG” value with HRE-bla ME-180 cells [2] is given as “++ (≤5 but <15: ++)”. In addition, in the assay on HRE-bla ME-180 cells [3], the “18 h Avg % max inhibition at top conc” value was “++++ (≥50: ++++)” and the EC50 lay in the range of 5 to 15 µM.

`CCCC[C@H](NC(=O)[C@H](CCC(=O)O)NC(=O)[C@@H](NC(=O)[C@@H](NC(=O)[C@H](CO)NC(=O)[C@]1(C)CCCC=CCCC[C@](C)(NC(=O)[C@H](CCC(=O)O)NC(=O)[C@H](CC(=O)O)NC(=O)[C@@H](NC(=O)[C@H](Cc2ccccc2)NC(C)=O)[C@@H](C)CC)C(=O)N[C@@H](C(C)C)C(=O)N[C@@H](CC(C)C)C(=O)N[C@@H](CCCC)C(=O)N1)C(C)C)[C@@H](C)CC)C(=O)N[C@@H](C)C(=O)N[C@@H](CC(C)C)C(N)=O` [SP-144] (Ac-FIDE[S5]VL[Nle][S5]SVIE[Nle]AL-NH2; staple 5-9): the IC50 in assay [1] was in the range of 400 to 700 nM. Moreover, in the assay on HRE-bla ME-180 cells [2], the “Viability 1% FBS AVG” value is “+++ (≤15 but <30: +++)”. In addition, in the assay on HRE-bla ME-180 cells [3], the “18 h Avg % max inhibition at top conc” value is “++++ (≥50: ++++)” and the EC50 is above 30 µM.

As for `CCCC[C@@H]1NC(=O)[C@H](CC(C)C)NC(=O)[C@H](C(C)C)NC(=O)[C@@](C)(NC(=O)[C@H](CCC(=O)O)NC(=O)[C@H](CC(=O)O)NC(=O)[C@@H](NC(=O)[C@H](Cc2ccccc2)NC(C)=O)[C@@H](C)CC)CCCC=CCCC[C@@](C)(C(=O)N[C@@H](CC(C)C)C(=O)N[C@H](C(=O)N[C@H](C(=O)N[C@@H](CCC(=O)O)C(=O)N[C@@H](CCC(N)=O)C(=O)N[C@@H](C)C(=O)N[C@@H](CC(C)C)C(N)=O)[C@@H](C)CC)C(C)C)NC1=O` [SP-146] (Ac-FIDE[S5]VL[Nle][S5]LVIEQAL-NH2; staple 5-9), the IC50 in assay [1] is above 700 nM. Further, the “Viability 1% FBS AVG” value with HRE-bla ME-180 cells [2] is given as “++++ (≥30: ++++)”. In the assay with HRE-bla ME-180 cells [3], the “18 h Avg % max inhibition at top conc” value was “+++ (≤25 but <50: +++)” and the EC50 is above 30 µM.

Turning to `CCCC[C@@H]1NC(=O)[C@H](CC(C)C)NC(=O)[C@H](C(C)C)NC(=O)[C@@](C)(NC(=O)[C@H](CCC(=O)O)NC(=O)[C@H](CC(=O)O)NC(=O)[C@@H](NC(=O)[C@H](Cc2ccccc2)NC(C)=O)[C@@H](C)CC)CCCC=CCCC[C@@](C)(C(=O)N[C@@H](CC(C)C)C(=O)N[C@H](C(=O)N[C@H](C(=O)N[C@@H](CCC(=O)O)C(=O)N[C@@H](CO)C(=O)N[C@@H](C)C(=O)N[C@@H](CC(C)C)C(N)=O)[C@@H](C)CC)C(C)C)NC1=O` [SP-147] (Ac-FIDE[S5]VL[Nle][S5]LVIESAL-NH2; staple 5-9), the IC50 in assay [1] is above 700 nM. In the assay with HRE-bla ME-180 cells [2], the “Viability 1% FBS AVG” value is given as “++++ (≥30: ++++)”. In addition, in the assay with HRE-bla ME-180 cells [3], the “18 h Avg % max inhibition at top conc” value was “+++ (≤25 but <50: +++)” and the EC50 was in the range of 15 to 30 µM.

These data come from patent US20190225650A1, “PEPTIDOMIMETIC MACROCYCLES AND USE THEREOF IN REGULATING HIF1ALPHA” (AILERON THERAPEUTICS, INC., priority 2013, published 2019).
